This test addresses T1, Cytochrome P450 165B3 (Amycolatopsis orientalis, UniProt Q8RN04).
T1 sequence (Q8RN04 whole entry): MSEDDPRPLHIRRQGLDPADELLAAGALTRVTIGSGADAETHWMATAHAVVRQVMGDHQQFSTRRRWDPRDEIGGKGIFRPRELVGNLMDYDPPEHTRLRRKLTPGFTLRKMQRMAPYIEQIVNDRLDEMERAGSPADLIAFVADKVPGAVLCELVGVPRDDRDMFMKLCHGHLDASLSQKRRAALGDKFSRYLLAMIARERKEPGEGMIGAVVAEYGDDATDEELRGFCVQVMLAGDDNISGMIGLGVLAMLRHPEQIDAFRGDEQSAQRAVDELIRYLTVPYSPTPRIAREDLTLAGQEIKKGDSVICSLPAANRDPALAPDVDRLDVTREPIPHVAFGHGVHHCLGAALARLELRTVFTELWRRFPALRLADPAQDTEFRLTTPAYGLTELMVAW
The test is described as follows: Binding affinity to Amycolatopsis orientalis OxyB.

The Kd is a measure of binding affinity in units of concentration. Read a low Kd as tighter binding. For `CN[C@H](CC(C)C)C(=O)N[C@H](Cc1ccc(O)cc1)C(=O)N[C@@H](CC(N)=O)C(=O)N[C@@H](C(=O)N[C@@H](C(=O)N[C@H](Cc1ccc(O)cc1)C(=O)O)c1ccc(O)cc1)c1ccc(O)cc1`, binding was characterised by a dissociation constant (Kd) of 35 µM. The figure for `CN[C@H](CC(C)C)C(=O)N[C@H](Cc1ccc(O)cc1)C(=O)N[C@@H](CC(N)=O)C(=O)N[C@@H](C(=O)N[C@@H](C(=O)N[C@@H](Cc1ccc(O)cc1)C(=O)O)c1ccc(O)cc1)c1ccc(O)cc1` is 17 µM.

The values above are taken from ChEMBL document CHEMBL1142389, “New insights into the first oxidative phenol coupling reaction during vancomycin biosynthesis” (Bioorg Med Chem Lett, 2008).
